Among the data in patent US20260209183A1, “HETEROCYCLIC COMPOUNDS AND USES THEREOF” (CERTA THERAPEUTICS PTY LTD, priority 2022, published 2026) are IC50 values, retold here.

The target of the test is T1, human GPR68 (Homo sapiens, UniProt Q15743).
T1 construct: host or cells: HEK293T
In words: GPR68 cAMP GloSensor assay. The following applies: HEK293T cells transiently transfected with GPR68 and GloSensor-22F cAMP reporter; activation at pH 6.0; 10 μM top, 3-fold, 10 points, in duplicate. It is filed as cell-based. The text has this:
The assay was developed to provide a quick screen assay to determine the potency and EC50s/IC50s of compounds against the GPR68 receptor with transient transfection cell.
GPR68 senses extracellular pH.
To determine the compound activity in GPR68 inhibition, an GPR68 dependent cAMP assay was developed and validated. Principle of this method: Expression of GPR68 in HEK293T cells by transient transfection of a GPR68-expression vector and a cAMP-sensing reporter vector (GloSensor, Promega). The transfected cells as a pool will be re-plated uniformly in assay plates, to minimize the in-experiment variation. The GPR68 receptor signal will be measured via Gs to CAMP increase as indicated by the Luc activation under basal (pH8.4 or pH7.4) or activated (pH6.5 or pH6.0) states.
• GloSensor™ CAMP Reagent (Promega, Cat #E1291) • human GPR68 NM_001177676.2_pcDNA3.1 (+)(Genscript) • The GloSensor™-22F CAMP Reporter Vector (Promega, Cat #E2301) • DMEM (Gibco, Cat #11995065) • FBS, Qualified, New Zealand origin (Gibco, Cat #10091148) • Penicillin-Streptomycin (Gibco, Cat #15140122) • 0.25% Trypsin-EDTA (Gibco, Cat #25200056) • PBS (Gibco, Cat #10010049) • 1x HBSS (Gibco, Cat #14175079) • HEPES (Gibco, Cat #15630080) • MES (Sigma, Cat #M2933-25G) • TAPS (Sigma, Cat #T5316-25G) • NaOH (Sigma, Cat #221465) • BSA (Sigma, Cat #B2064-50G) • Opti-MEM (Gibco, Cat #31985070) • DMSO (Sigma, Cat #D5879-1L) • FuGene HD Transfection Reagent (Promega, Cat #E2311)
• 1) Detached cells with 0.25% Trypsin when the cell confluence was about 80%. • 2)Resuspended the detached cells in 3 ml fresh cell culture medium. Counted the cell number and diluted the cells to proper density. • 3) Seeded 1.5∧10∧6 cells into 6-well plate (Cat. #3516) in 2 ml per well contained the need to transfection well so that the cells were 80-85% confluent at the time of transfection. • 4) Incubated the cells at 37° C. in a CO2 incubator for 6 hours.
• 5) Gently aspirated off the DMEM medium. Then added the Opti-MEM® Medium without serum into 6-well plate. • 6) Added 2.5 μg GPR68 and 2.5 μg GloSensor-22F in 1:1 ratio and 12 μl FuGeneHD into 120 μl of Opti-MEM® Medium without serum. Mixed gently and incubated for 15 min at room temperature. • 7) After the 15-minute incubation, added 137 μl of DNA-Transfection Reagent complexes to each well containing cells and medium. Mixed gently by rocking the plate back and forth. • 8) Incubated the cells at 37° C. in a co2 incubator for 19 h until they were ready to assay for transgene expression.
Seeded 40000 cells/well, 100 μl/well in 96-well plate (Cat. #3610) with complete DMEM medium; incubated overnight.
• 1) Compounds were solubilized in 100% DMSO to a concentration of 50 mM. • 2) Prepared compound DMSO solutions in 384 LDV echo plate: top concentration was 10 mM, 3-fold, 10 dose-response, so intermediate concentrations were created by serially diluting by […] beginning from the 10000 μM. 5 μL tested intermediate compounds+10 μl DMSO solutions were transferred to 384 LDV echo plate. Centrifuged the echo plate at 1000 rpm for 30s before Echo procedure. Compounds were transferred 180 nL volume by Echo550 to a 96-assay plate (corning, Cat #3599), to make compound 10 concentration points in duplicate (the final top concentration was 10 μM, 3-fold, 10 dose-response, in duplicate). Final DMSO concentration is 0.1%. • 3) For the Low control wells and High control wells, 180 nL DMSO were transferred by ECHO. • 4) Layout of assay plate 180 nL/well of compounds in 100% DMSO 180 nL/well DMSO in Low control wells and High control wells was as shown below. Compounds were prepared into assay plate at […] in 100% DMSO, the assay volume was […], and final DMSO concentration was 0.1%.
• 1)Removed culture medium, added 100 μL/well GloSensor (50×) to cells, then incubated for 2 h at room temperature.
• 2) Pre-read Luminescence at −5 min for background after 2 h incubation.

T1 sequence (Q15743 whole entry): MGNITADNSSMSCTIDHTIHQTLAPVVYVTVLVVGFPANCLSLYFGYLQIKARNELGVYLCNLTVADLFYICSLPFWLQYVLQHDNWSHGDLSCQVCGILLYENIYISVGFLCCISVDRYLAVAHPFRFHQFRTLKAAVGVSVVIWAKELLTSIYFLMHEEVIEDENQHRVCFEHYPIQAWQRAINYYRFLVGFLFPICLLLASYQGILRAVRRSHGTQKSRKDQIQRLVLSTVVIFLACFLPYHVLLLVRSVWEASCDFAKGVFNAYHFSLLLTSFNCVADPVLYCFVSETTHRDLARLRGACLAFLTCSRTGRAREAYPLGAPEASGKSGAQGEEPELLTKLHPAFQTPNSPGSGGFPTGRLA

As to `O=C(/C=C/c1ccc2c(cnn2CC2CC2)c1)Nc1ccccn1` [Compound 5, (E)-3-(1-(cyclopropylmethyl)-1H-indazol-5-yl)-N-(pyridin-2-yl)acrylamide], half-maximal inhibition (IC50) required 1.41 µM.

Compound `O=C(/C=C/c1ccc2c(cnn2CC2CC2)c1)NC1C2CC3CC(C2)CC1C3` (centres unmarked) [Compound 19] registered an IC50 of 9.7 µM.

On to `O=C(/C=C/c1ccc2c(cnn2CC2CC2)c1)Nc1ccccc1-c1nnn[nH]1` [Compound 16, (E)-N-(2-(1H-tetrazol-5-yl)phenyl)-3-(1-(cyclopropylmethyl)-1H-indazol-5-yl)acrylamide], for which the midpoint of inhibition, the IC50, lay at 6.9 µM.

With `O=C(/C=C/c1ccc2c(cnn2CC2CC2)c1)Nc1ccccc1-c1n[nH]c(=O)o1` [Compound 14, (E)-3-(1-(cyclopropylmethyl)-1H-indazol-5-yl)-N-(2-(5-oxo-4,5-dihydro-1,3,4-oxadiazol-2-yl)phenyl)acrylamide], the IC50 was 5.72 µM.

For `O=C(/C=C/c1ccc2c(cnn2CC2CC2)c1)Nc1cccnc1C(=O)O` [Compound 7, (E)-3-(3-(1-(cyclopropylmethyl)-1H-indazol-5-yl)acrylamido)picolinic acid], half-maximal inhibition (IC50) was put at 2.02 µM.

Take `O=C(/C=C/c1ccc2c(cnn2CC2CC2)c1)Nc1sccc1C(=O)O` [Compound 1]: half-maximal inhibition (IC50) was put at 0.593 µM.

Turning to `O=C(/C=C/c1ccc2c(cnn2CC2CC2)c1)Nc1c(F)cccc1C(=O)O` [Compound 36], the IC50 was found to be 11.5 µM.

In turn, `O=C(/C=C/c1cc2cnn(CC3CC3)c2cc1F)Nc1ccccc1C(=O)O` [Compound 4, (E)-2-(3-(1-(cyclopropylmethyl)-6-fluoro-1H-indazol-5-yl)acrylamido)benzoic acid] gave an IC50 of 1.29 µM.

`O=C(/C=C/c1ccc2c(cnn2CC2CC2)c1)Nc1ccccc1C(=O)O` [Compound 6, (E)-2-(3-(1-(cyclopropylmethyl)-1H-indazol-5-yl)acrylamido)benzoic acid] had an IC50 of 1.68 µM.

`CN(C)S(=O)(=O)NC(=O)c1ccccc1NC(=O)/C=C/c1ccc2c(cnn2CC2CC2)c1` [Compound 17] gave an IC50 of 7.02 µM.

In turn, `NS(=O)(=O)c1ccccc1NC(=O)/C=C/c1ccc2c(cnn2CC2CC2)c1` [Compound 18, (E)-3-(1-(cyclopropylmethyl)-1H-indazol-5-yl)-N-(2-sulfamoylphenyl)acrylamide] displayed an IC50 of 7.39 µM.

`O=C(/C=C/c1ccc2c(cnn2CC2CC2)c1)Nc1ccccc1` [Compound 8, (E)-3-(1-(cyclopropylmethyl)-1H-indazol-5-yl)-N-phenylacrylamide]: the IC50 was 2.08 µM.

The compound `O=C(/C=C/c1ccc2c(cnn2CC2CC2)c1)Nc1ncccc1F` [Compound 23] showed an IC50 of 17 µM.

As to `O=C(/C=C/c1ccc2c(cnn2CC2CC2)c1)Nc1ccccc1NS(=O)(=O)CC(F)(F)F` [Compound 12, (E)-3-(1-(cyclopropylmethyl)-1H-indazol-5-yl)-N-(2-((2,2,2-trifluoroethyl)sulfonamido)phenyl)acrylamide], the IC50 turned out to be 4.49 µM.

`O=C(/C=C/c1ccc2c(cnn2CC2CC2)c1)Nc1ccccc1-c1noc(=O)[nH]1` [Compound 13, (E)-3-(1-(cyclopropylmethyl)-1H-indazol-5-yl)-N-(2-(5-oxo-4,5-dihydro-1,2,4-oxadiazol-3-yl)phenyl)acrylamide] returned an IC50 of 4.81 µM.

`O=C(/C=C/c1ccc2c(cnn2CC2CC2)c1)Nc1ccc(F)cn1` [Compound 25] returned an IC50 of 14.9 µM.

`O=C(/C=C/c1ccc2c(cnn2CC2CC2)c1)Nc1ccccc1F` [Compound 2, (E)-3-(1-(cyclopropylmethyl)-1H-indazol-5-yl)-N-(2-fluorophenyl)acrylamide] came in with an IC50 of 0.861 µM.

As for `O=C(/C=C/c1ccc2c(cnn2CC2CC2)c1)Nc1cccc(C(=O)O)n1` [Compound 10, (E)-6-(3-(1-(cyclopropylmethyl)-1H-indazol-5-yl)acrylamido)picolinic acid], the IC50 worked out at 3.82 µM.

As for `Cn1ncc2cc(/C=C/C(=O)Nc3ccccn3)ccc21` [Compound 9, (E)-3-(1-methyl-1H-indazol-5-yl)-N-(pyridin-2-yl)acrylamide], the IC50 stood at 3.46 µM.

Turning to `Cn1ncc2cc(/C=C/C(=O)Nc3ccccc3)ccc21` [Compound 11, (E)-3-(1-methyl-1H-indazol-5-yl)-N-phenylacrylamide], the IC50 came out at 3.83 µM.

`O=C(/C=C/c1ccc2c(cnn2CC2CC2)c1)Nc1cc(F)ccc1C(=O)O` [Compound 56] had an IC50 of 3.52 µM.

As for `O=C(/C=C/c1ccc2c(cnn2CC2CC2)c1)Nc1ccc(F)cc1C(=O)O` [Compound 55], the midpoint of inhibition, the IC50, lay at 8.6 µM.

For `O=C(O)c1nn(C(=O)/C=C/c2ccc3c(cnn3CC3CC3)c2)c2ccccc12` [Compound 15], the IC50 is 6.68 µM.
